{"source": "patent US12011445B2", "about": "“Prevention of pancreatic cell degeneration” (Melior Pharmaceuticals I, Inc., priority 2010, dated 2024)", "key": {"[1]": {"assay": "Oral glucose tolerance test", "assay_type": "in vivo, mice", "conditions": "for blood glucose levels at all time points after administration: P<0.05", "description": "Glucose was formulated in water at a concentration of 150 mg/ml and dosed at a volume of 10 ml/kg to produce a dose of 1.5 g/kg. Glucose was measured using the Ascensia II Elite XL glucose monitor ([…]). Measure glucose by taking a small (2 mm) section off the tip of the tail, bleed onto glucose test strip and measure. Data for each time point analyzed by ANOVA and post-hoc Tukey's test. A p value of less then 0.05 was used to indicate statistical significance. […]\nIn study 1, mice were dosed with Compound 102 and glucose as follows:\nIn study 2, mice were dosed with Compound 102 and glucose as follows.\nStudy 3 tested Compound 102 and was conducted as follows: […]"}, "[2]": {"assay": "Western Diet study (weight, food intake, fat pads)", "assay_type": "in vivo, Male CD1/ICR mice", "description": "Male CD1/ICR mice were obtained from Harlan. The study was started when mice were 8 weeks of age. Prior to initiation of the study mice fasted for 24 hrs. Mice were fed “Western Diet” that was designed to approximate the “typical” human diet of North America and Europe (Research Diets; New Brunswick, N.J.; Western Diet composition). The Western Diet contained greater then 5 times more fat then normal chow. [table] Mice were weighed daily beginning from the start of the 24 hr fasting period. Food intake was monitored continuously. Mice were bled by retroorbital eyebleed on days 7, 14, 21 and 28 after the initiation of the study. On day of REB mice were dosed 1× with full dose 1 hr prior to bleed. Fat pads were dissected at the end of the study (day 31) weighed and frozen. The following fat pads were dissected: brown, inguinal, axial, mesenteric, renal and epidydimal. Data were averaged and analyzed by ANOVA followed by a post-hoc Tukey's test with a p value of less then 0.05 indicating a statistical difference."}, "[3]": {"test_system": "leptin", "assay": "Leptin levels in Western diet treated animals (ELISA)", "assay_type": "in vivo, mice", "conditions": "animals fed a western diet", "description": "Blood from mice that were on western diet (Compound 102) were analyzed for leptin levels. Mice were bled by retroorbital eyebleed on days 7, 14, 21 and 28 after the initiation of the study. On day of REB mice were dosed once with full dose 1 hr prior to bleed. Leptin levels were determined by ELISA (R&D Systems) as per directions. Data are expressed as the average±SEM. Data were averaged and analyzed by ANOVA followed by a post-hoc Tukey's test with a p value of less then 0.05 indicating a statistical difference."}, "[4]": {"test_system": "Db/Db mice", "assay": "In vivo Db/Db mouse study", "conditions": "for acute blood glucose response: upon study initiation and on weekly blood glucose testing", "description": "Db/Db and Db/lean mice were obtained from Harlan at 6 weeks of age. Mice were housed 3 per cage and fed ad libitum normal rodent chow. Mice were kept on a 12 hr Light:dark cycle.\nThe study was initiated when mice reached an age of 8 weeks and their baseline blood glucose levels were greater than 200 mg/dl. Compound 102 was formulated in PBS: 2N HCl (99:1) at concentrations of 0.5, 1.5 and 5 mg/ml. Mice were dosed at volumes of 10 ml/kg to produce doses of 5, 15 and 50 mg/kg/dose. Mice were dosed twice per day at an 8 hr interval (8 am and 4 pm) during the light cycle.\nFor the acute blood glucose measurements, blood glucose levels were measured after the animals received their first dose of Compound 102. Blood glucose levels were measured two hours after this initial injection.\nMice were administered vehicle or drug (i.e., Compound 102) (5, 15, and 50 mg/kg) twice per day (bid) for the 28 days. Mouse weight and food intake were monitored daily. Food intake is reported as food intake (grams) per mouse per 24 hr period."}, "[5]": {"test_system": "Zucker rats", "assay": "In vivo Zucker rat study (oral glucose challenge)", "conditions": "30 mg/kg ip; glucose 1.5 g/kg; 30 and 270 minutes after administration", "description": "Zucker rats and corresponding lean rats were supplied by Harlan. Rats were fed a normal diet, ad libitum, and kept on a 12 hr light/dark cycle. Rats were housed 3 per cage. At 12 weeks of age, Zucker rats were administered Compound 102 at a concentration of 30 mg/kg (ip). Blood glucose levels were measured 30 minutes after administration. Forty-five minutes after drug administration, animals were administered a glucose solution (1.5 g/kg) by oral gavage. Blood glucose levels were measured every 30 minutes after gavage for 4.5 hrs. There were 3 groups with 3 animals per group: 1) 3 Zucker leans (no drug; no glucose treatment); 2) Zucker vehicle treated group (glucose challenged and 3) Zucker Compound 102 treatment (30 mg/kg); glucose challenged."}, "[6]": {"test_system": "Db/Db mice", "assay": "Blood glucose and serum insulin levels in db/db mice, 56 days", "assay_type": "in vivo", "description": "Blood glucose levels were measured once per week and serum insulin levels measured at the beginning and at the end of the study."}, "[7]": {"test_system": "pancreatic β-cells", "assay": "Pancreatic β-cell degeneration in db/db mice (insulin antibody staining of pancreas)", "assay_type": "in vivo", "description": "Db/db mice were administered Compound 102 (100 mg/kg) for 60 days. At the end of the treatment period, pancreases were removed, post-fixed, sectioned and stained with insulin antibody to visualize pancreatic β-cells. Vehicle treated db/db mice expressed dramatically less insulin staining than lean control mice."}, "[8]": {"conditions": "study 1, single administration, 30 mg/kg"}, "[9]": {"conditions": "Western diet, fat pads dissected day 31"}, "[10]": {"conditions": "IP, twice/day, four weeks, 5, 15 and 50 mg/kg"}, "[11]": {"conditions": "chronic treatment, histology, vs untreated controls, FIG. 2"}}, "note": "“Also recorded” adds a separate entry of the source."}
{"smiles": "O=c1ncc(Oc2cccc(Cl)c2)c[nH]1", "note": "[Compound 105]", "values": [{"measurement": "baseline blood glucose levels", "setting": "[1]; data not shown", "result": "significantly depressed"}, {"measurement": "blood glucose levels", "setting": "[1]; oral glucose tolerance test, overall statement", "result": "dramatic reductions"}, {"measurement": "blood glucose levels at all time points after administration", "setting": "[1]; single dose 2 mg/kg", "result": "significantly (P<0.05) reduced"}, {"measurement": "blood glucose levels at all time points after administration", "setting": "[1]; single dose 10 mg/kg", "result": "significantly (P<0.05) reduced"}]}
{"smiles": "Cc1cccc(Oc2cnc(=O)[nH]c2)c1", "note": "[Compound 102]", "values": [{"measurement": "blood glucose levels produced by oral glucose administration", "setting": "[1]; [8]", "result": "significantly attenuated"}, {"measurement": "normal blood glucose levels (pre-glucose loading)", "setting": "[1]; [8]", "result": "significantly decreased"}, {"measurement": "time after drug administration at which significance was lost", "setting": "[1]; [8]", "result": 90, "unit": "min"}, {"measurement": "effect on blood glucose levels", "setting": "[1]; study 2, increased dosing", "result": "more dramatic effect"}, {"measurement": "food intake", "setting": "[2]; Western / high fat diet fed mice", "result": "not affected; also recorded: independent of an effect on food intake; also recorded: normal food intake"}, {"measurement": "brown, axial, inguinal, renal and epipdydimal fat pad increases", "setting": "[2]; [9]", "result": "significantly reduced"}, {"measurement": "mesenteric fat pad levels", "setting": "[2]; [9]", "result": "not"}, {"measurement": "weight gain", "setting": "[2]; Western diet, highest dose tested (30 mg/kg/day), absolute weight and weight change from day 0", "result": "significantly reduced"}, {"measurement": "defecation", "setting": "[2]; chronic administration, high fat diet", "result": "defecated normally"}, {"measurement": "hyperactivity normally associated with the amphetamine class of weight-loss drugs", "setting": "[2]; mouse, in vivo", "result": "did not display the hyperactivity"}, {"measurement": "animals fed a western diet and treated, compared with normal diet (weight gain, food intake, fat pad development, leptin)", "setting": "[2]; summary of Examples 2 and 3", "result": "do not look different from those fed a normal diet"}, {"measurement": "weight change / weight-gain response", "setting": "[2]; western (high fat) diet fed animals, chronic administration, dose not stated", "result": "significant alteration; also recorded: significantly inhibited"}, {"measurement": "fat pad development", "setting": "[2]; western diet fed animals", "result": "reduction in fat pad development"}, {"measurement": "blood leptin levels", "setting": "[3]", "result": "reduced leptin levels to those fed a normal diet"}, {"measurement": "acute blood glucose response", "setting": "[4]; 15 mg/kg dose group", "result": "acute dose response"}, {"measurement": "acute blood glucose response", "setting": "[4]; 50 mg/kg dose group", "result": "acute dose response"}, {"measurement": "effect on animal weight gain", "setting": "[4]; [10]", "result": "dose dependent effect"}, {"measurement": "effect on blood glucose levels", "setting": "[4]; [10]", "result": "dose dependent effect"}, {"measurement": "blood glucose levels following acute administration", "setting": "[4]; measured two hours after first dose", "result": "reduce blood glucose levels"}, {"measurement": "blood glucose levels after oral glucose administration", "setting": "[5]", "result": "reduced blood glucose levels at both time points"}, {"measurement": "serum insulin levels", "setting": "[6]; 30 mg/kg daily for 56 days, beginning vs end of study, FIG. 1", "result": "significantly slowed the loss; also recorded: prevention of the loss of serum insulin levels"}, {"measurement": "blood glucose levels", "setting": "[6]; 30 mg/kg daily for 56 days, measured once per week, FIG. 1", "result": "attenuated the progressive rise; also recorded: decrease in blood glucose"}, {"measurement": "extent of serum insulin lowering associated with pancreatic β-cell loss", "setting": "[6]; db/db mice, compared among Compound 102, vehicle and rosiglitazone", "result": "do not exhibit the extent of serum insulin lowering"}, {"measurement": "insulin staining of pancreas sections", "setting": "[7]; 100 mg/kg for 60 days", "result": "significantly higher levels of insulin staining than vehicle treated mice"}, {"measurement": "islet insulin content", "setting": "[7]; [11]", "result": "increased insulin content"}, {"measurement": "islet structure", "setting": "[7]; [11]", "result": "better preserved islet structure"}, {"measurement": "pancreatic β-cell degeneration", "setting": "[7]; db/db mice, FIG. 2", "result": "prevents β-cell degeneration; also recorded: prevention of pancreatic β-cell degeneration"}]}
